Source: ChEMBL document CHEMBL1155106, “Progesterone receptor antagonists with a 3-phenylquinazoline-2,4-dione/2-phenylisoquinoline-1,3-dione skeleton” (Bioorg Med Chem, 2008)
The source made the active and inactive calls. The rule behind the calls is not given here.

Legend:
Progesterone receptor [1] = target: T1, Progesterone receptor (Homo sapiens, UniProt P06401); assay: Antagonist activity at human progesterone receptor expressed in CHO cells assessed as […] luciferase activity by reporter gene assay; format: functional, cell-based
T1 sequence (P06401 whole entry): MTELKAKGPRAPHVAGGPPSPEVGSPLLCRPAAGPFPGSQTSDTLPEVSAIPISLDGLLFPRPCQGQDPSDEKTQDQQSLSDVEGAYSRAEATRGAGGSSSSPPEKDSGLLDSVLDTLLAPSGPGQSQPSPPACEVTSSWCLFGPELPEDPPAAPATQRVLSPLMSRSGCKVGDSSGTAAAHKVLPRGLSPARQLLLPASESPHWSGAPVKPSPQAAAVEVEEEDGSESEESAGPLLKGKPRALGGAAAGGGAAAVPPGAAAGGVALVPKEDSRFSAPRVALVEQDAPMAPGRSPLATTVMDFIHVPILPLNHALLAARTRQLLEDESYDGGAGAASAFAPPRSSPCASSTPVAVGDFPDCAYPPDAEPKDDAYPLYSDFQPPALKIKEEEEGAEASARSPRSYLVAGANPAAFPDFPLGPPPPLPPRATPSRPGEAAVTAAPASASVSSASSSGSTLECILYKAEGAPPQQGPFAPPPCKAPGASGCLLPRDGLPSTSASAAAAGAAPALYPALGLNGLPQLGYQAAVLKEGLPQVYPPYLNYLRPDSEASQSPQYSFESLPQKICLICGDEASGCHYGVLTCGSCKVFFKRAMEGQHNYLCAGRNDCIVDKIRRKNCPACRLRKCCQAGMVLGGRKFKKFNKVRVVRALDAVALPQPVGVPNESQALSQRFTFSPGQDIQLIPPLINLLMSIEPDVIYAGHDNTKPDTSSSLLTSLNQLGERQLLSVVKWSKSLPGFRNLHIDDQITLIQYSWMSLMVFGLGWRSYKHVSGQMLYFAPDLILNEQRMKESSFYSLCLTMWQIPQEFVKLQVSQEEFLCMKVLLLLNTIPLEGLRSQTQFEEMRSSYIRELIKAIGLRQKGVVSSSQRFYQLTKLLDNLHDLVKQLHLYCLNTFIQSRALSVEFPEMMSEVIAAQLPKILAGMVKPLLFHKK

Progesterone receptor [2] = target: T1, Progesterone receptor; assay: Antagonist activity at progesterone receptor in human T47D cells assessed as inhibition of progesterone-induced alkaline phosphatase activity; format: functional, cell-based
[3] = target: T2, Progesterone receptor (Homo sapiens) (UniProt P06401); assay: Antagonist activity at progesterone receptor in human T47D cells assessed as inhibition of progesterone-induced alkaline phosphatase activity at 100 uM; format: functional, cell-based
T2 sequence (whole entry): T1 sequence (P06401 whole entry)

[4] = target: T3, Androgen receptor (Homo sapiens) (UniProt P10275); assay: Displacement of [3H]testosterone from androgen receptor expressed in human T47D cells; format: cell-based
T3 sequence (whole entry): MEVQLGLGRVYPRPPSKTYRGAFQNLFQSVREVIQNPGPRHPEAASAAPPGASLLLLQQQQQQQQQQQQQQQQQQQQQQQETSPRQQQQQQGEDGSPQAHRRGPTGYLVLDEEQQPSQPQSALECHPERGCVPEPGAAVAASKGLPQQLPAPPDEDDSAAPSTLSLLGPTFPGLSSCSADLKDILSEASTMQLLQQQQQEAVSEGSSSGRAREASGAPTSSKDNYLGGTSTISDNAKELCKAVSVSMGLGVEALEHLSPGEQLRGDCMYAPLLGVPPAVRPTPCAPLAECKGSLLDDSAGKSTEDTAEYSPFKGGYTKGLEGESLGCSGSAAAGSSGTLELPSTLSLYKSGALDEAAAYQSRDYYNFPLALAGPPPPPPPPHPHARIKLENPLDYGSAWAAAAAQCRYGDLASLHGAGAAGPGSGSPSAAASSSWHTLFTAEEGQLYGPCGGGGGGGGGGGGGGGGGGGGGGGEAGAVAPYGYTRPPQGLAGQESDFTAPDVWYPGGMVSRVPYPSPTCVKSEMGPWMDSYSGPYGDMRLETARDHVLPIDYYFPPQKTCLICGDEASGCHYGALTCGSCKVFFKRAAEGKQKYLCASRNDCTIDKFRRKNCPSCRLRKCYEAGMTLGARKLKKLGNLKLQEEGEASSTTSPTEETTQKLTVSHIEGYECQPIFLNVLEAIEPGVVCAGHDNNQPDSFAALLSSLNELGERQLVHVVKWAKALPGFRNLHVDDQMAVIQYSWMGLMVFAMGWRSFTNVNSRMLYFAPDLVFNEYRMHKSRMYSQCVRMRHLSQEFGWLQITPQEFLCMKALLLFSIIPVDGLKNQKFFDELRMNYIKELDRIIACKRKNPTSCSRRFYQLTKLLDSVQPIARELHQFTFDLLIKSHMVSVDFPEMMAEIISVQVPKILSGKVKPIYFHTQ

[5] = target: T4, Estrogen receptor (Homo sapiens) (UniProt P03372); assay: Displacement of [3H]estradiol from estrogen receptor expressed in human T47D cells; format: cell-based
T4 sequence (whole entry): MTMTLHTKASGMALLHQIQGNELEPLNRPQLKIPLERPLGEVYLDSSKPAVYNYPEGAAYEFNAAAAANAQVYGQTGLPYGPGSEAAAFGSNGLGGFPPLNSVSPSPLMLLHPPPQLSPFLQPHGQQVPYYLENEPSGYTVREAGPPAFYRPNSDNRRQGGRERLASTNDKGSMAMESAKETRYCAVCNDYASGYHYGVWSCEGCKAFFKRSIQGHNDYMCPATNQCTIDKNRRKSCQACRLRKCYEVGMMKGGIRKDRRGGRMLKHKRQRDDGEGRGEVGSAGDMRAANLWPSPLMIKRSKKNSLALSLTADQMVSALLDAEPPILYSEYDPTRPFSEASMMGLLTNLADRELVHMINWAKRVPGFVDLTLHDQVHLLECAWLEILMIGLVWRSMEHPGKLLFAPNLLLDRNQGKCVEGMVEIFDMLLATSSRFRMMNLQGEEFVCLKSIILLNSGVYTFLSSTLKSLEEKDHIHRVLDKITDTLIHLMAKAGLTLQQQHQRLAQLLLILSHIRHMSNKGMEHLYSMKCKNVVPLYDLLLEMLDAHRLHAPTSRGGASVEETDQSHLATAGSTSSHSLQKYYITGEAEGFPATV

[6] = target: T2, Progesterone receptor (Homo sapiens); assay: Agonist activity at human progesterone receptor expressed in CHO cells assessed as […] luciferase activity by reporter gene assay; format: functional, cell-based
[7] = target: T2, Progesterone receptor (Homo sapiens); assay: Agonist activity at progesterone receptor in human T47D cells assessed as induction of alkaline phosphatase activity
[8] = target: T2, Progesterone receptor (Homo sapiens); assay: Antagonist activity at human progesterone receptor expressed in CHO cells assessed as inhibition of progesterone-induced luciferase activity by reporter gene assay at 100 uM; format: functional, cell-based

SMILES | IC50 (Progesterone receptor [1]) [µM] | IC50 (Progesterone receptor [2]) [nM] | other results
CC1(C)C(=O)N(c2ccccc2)C(=O)c2ccccc21 | 26 | 20000 | 
CC1(C)C(=O)N(c2cccc(F)c2)C(=O)c2ccccc21 | 11 | 10000 | 
O=C1CC(O)C(N2C(=O)c3ccc(O)cc3C2=O)C(=O)N1 (stereo not drawn) |  |  | inhibition [3]: 29.4%
CCC1(CC)C(=O)N(c2ccc(Cl)cc2)C(=O)c2ccccc21 | 0.28 | 250 | 
CC1(C)C(=O)N(c2ccccc2Cl)C(=O)c2ccccc21 | 4.9 | 4100 | 
CC1(C)C(=O)N(c2ccc(F)cc2)C(=O)c2ccccc21 | 8.9 | 6800 | 
CCC1(CC)C(=O)N(c2ccc(C#N)cc2)C(=O)c2ccccc21 | 0.078 | 74 | Activity [4]: inactive; Activity [5]: inactive
Cn1c(=O)n(-c2ccccc2)c(=O)c2ccccc21 |  | 84000 | Activity [6]: inactive; Activity [7]: inactive
N#Cc1ccc(N2C(=O)c3ccccc3C3(CCCC3)C2=O)cc1 | 0.69 | 1200 | 
O=C1CCC(N2C(=O)c3cccc(O)c3C2=O)C(=O)N1O (stereo not drawn) |  |  | inhibition [3]: 30.7%
CCCC1(CCC)C(=O)N(c2ccc(C#N)cc2)C(=O)c2ccccc21 | 0.14 | 120 | 
O=C1CC(O)C(N2C(=O)c3ccccc3C2=O)C(=O)N1 (stereo not drawn) |  |  | inhibition [3]: 30.6%
C=CCC1(CC=C)C(=O)N(c2ccc(Cl)cc2)C(=O)c2ccccc21 | 0.85 | 400 | 
COc1ccc(N2C(=O)c3ccccc3C(C)(C)C2=O)cc1 | 17 | 11000 | 
CC1(C)C(=O)N(c2ccccc2F)C(=O)c2ccccc21 | 10 | 13000 | 
CC1(C)C(=O)N(c2ccc(C#N)cc2)C(=O)c2ccccc21 | 1.8 | 1600 | 

SMILES | IC50 (Progesterone receptor [1]) [µM] | IC50 (Progesterone receptor [2]) [nM] | other results
O=C1CCC(N2C(=O)c3ccc(O)cc3C2=O)C(=O)N1O (stereo not drawn) |  |  | inhibition [3]: 53.7%
CCCC1(CCC)C(=O)N(c2ccc(Cl)cc2)C(=O)c2ccccc21 | 1 | 1100 | 
O=C1CCC(N2C(=O)c3ccccc3C2=O)C(=O)N1O (stereo not drawn) |  |  | inhibition [3]: 42.5%
CCCn1c(=O)n(-c2ccccc2)c(=O)c2ccccc21 | 18 | 23000 | Activity [6]: inactive; Activity [7]: inactive
CC1(C)C(=O)N(c2cccc(Cl)c2)C(=O)c2ccccc21 | 5.8 | 3400 | 
O=C1c2ccccc2C2(CCCCC2)C(=O)N1c1ccc(Cl)cc1 | 1.5 | 1100 | 
O=c1[nH]c2ccccc2c(=O)n1-c1ccccc1 |  |  | inhibition [3]: 34%; Activity [6]: inactive; Activity [7]: inactive
O=C1Cc2ccccc2C(=O)N1c1ccccc1 |  |  | inhibition [8]: 38%; inhibition [3]: 25%
O=c1c2ccccc2n(Cc2ccccc2)c(=O)n1-c1ccccc1 | 15 | 11000 | Activity [6]: inactive; Activity [7]: inactive
CC1(C)C(=O)N(c2ccc(Cl)cc2)C(=O)c2ccccc21 | 3.3 | 1300 | 
N#Cc1ccc(N2C(=O)c3ccccc3C3(CCCCC3)C2=O)cc1 | 0.45 | 880 | 
Cc1ccc(N2C(=O)c3ccccc3C(C)(C)C2=O)cc1 | 8.9 | 8100 | 
C=CCC1(CC=C)C(=O)N(c2ccc(C#N)cc2)C(=O)c2ccccc21 | 0.15 | 110 | 
O=C1CCC(N2C(=O)c3ccccc3C2=O)C(=O)N1 (stereo not drawn) |  |  | Activity [3]: inactive
CCn1c(=O)n(-c2ccccc2)c(=O)c2ccccc21 | 34 | 30000 | Activity [6]: inactive; Activity [7]: inactive
O=C1c2ccccc2C2(CCCC2)C(=O)N1c1ccc(Cl)cc1 | 2.1 | 1300 | 
